Assay results taken from patent US9556139B2, “6-substituted phenoxychroman carboxylic acid derivatives” (Array BioPharma Inc., priority 2008, dated 2017).

Biological target: human DP2 (Homo sapiens (Human), UniProt Q9Y5Y4)
Assay: DP-2 Binding Inhibition Assay (3H-PGD2 binding to membranes of K562 cells expressing DP2)
Conditions: read-out: EC50 (nM) 4% HSA; inhibition of 3H-PGD2 binding, 4% HSA
In short: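 Radioligand filtration binding: ³H-PGD2 displacement from DP2-expressing K562 cell membranes, 60 min, room temperature, pH 7.4, under 0.1% BSA, 1% HSA or 4% HSA.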

Chain of human DP2 (Q9Y5Y4 whole entry): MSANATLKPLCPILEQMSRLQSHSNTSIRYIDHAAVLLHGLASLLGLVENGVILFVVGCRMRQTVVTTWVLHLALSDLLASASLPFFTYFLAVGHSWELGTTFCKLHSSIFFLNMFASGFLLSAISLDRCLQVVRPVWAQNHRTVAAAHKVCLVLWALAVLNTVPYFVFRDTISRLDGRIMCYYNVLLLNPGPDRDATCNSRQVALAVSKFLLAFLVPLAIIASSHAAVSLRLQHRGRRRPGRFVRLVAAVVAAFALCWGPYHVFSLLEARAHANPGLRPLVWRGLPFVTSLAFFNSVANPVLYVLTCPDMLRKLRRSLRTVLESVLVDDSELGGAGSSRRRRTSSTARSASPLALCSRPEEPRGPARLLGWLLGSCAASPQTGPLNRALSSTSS

| Compound | EC50 |
| --- | --- |
| O=C(NCCc1ccccc1C(F)(F)F)c1ccc(Oc2cc3c(cc2Cl)C(C(=O)O)CCO3)cc1 (stereo not drawn) [Example 152, Sodium 6-chloro-7-(4-(2-(trifluoromethyl)phenethylcarbamoyl)phenoxy)chroman-4-carboxylate] | 160 nM |
| O=C(NCCc1ccccc1F)c1ccc(Oc2cc3c(cc2Cl)C(C(=O)O)CCO3)cc1 (stereo not drawn) [Example 153, Sodium 6-chloro-7-(4-(2-fluorophenethylcarbamoyl)phenoxy)chroman-4-carboxylate] | 521 nM |
| CC(C)(C)C1CCC(NC(=O)c2ccc(Oc3cc4c(cc3Cl)C(C(=O)O)CCO4)cc2)CC1 (stereo not drawn) [Example 156, 7-(4-(4-tert-butylcyclohexylcarbamoyl)phenoxy)-6-chlorochroman-4-carboxylic acid] | 509 nM |
| CC1(C)CCC(NC(=O)c2ccc(Oc3cc4c(cc3Cl)C(C(=O)O)CCO4)cc2)CC1 (stereo not drawn) [Example 157, 6-Chloro-7-(4-(4,4-dimethylcyclohexylcarbamoyl)phenoxy)chroman-4-carboxylic acid] | 1580 nM |
| COc1cccc(C2CCCC(NC(=O)c3ccc(Oc4cc5c(cc4Cl)C(C(=O)O)CCO5)cc3)C2)c1 (stereo not drawn) [Example 163, 6-Chloro-7-(4-(3-(3-methoxyphenyl)cyclohexylcarbamoyl)phenoxy)chroman-4-carboxylic acid] | 509 nM |
| O=C(NC1CCC(c2ccccc2)C1)c1ccc(Oc2cc3c(cc2Cl)C(C(=O)O)CCO3)cc1 (stereo not drawn) [Example 165, 6-chloro-7-(4-(3-phenylcyclopentylcarbamoyl)phenoxy)chroman-4-carboxylic acid] | 401 nM |
| O=C(NC1CCC(c2cccc(Cl)c2)C1)c1ccc(Oc2cc3c(cc2Cl)C(C(=O)O)CCO3)cc1 (stereo not drawn) [Example 167, 6-Chloro-7-(4-(3-(3-chlorophenyl)cyclopentylcarbamoyl)phenoxy)chroman-4-carboxylic acid] | 179 nM |
| Cc1cccc(C2CCC(NC(=O)c3ccc(Oc4cc5c(cc4Cl)C(C(=O)O)CCO5)cc3)C2)c1 (stereo not drawn) [Example 169, Sodium 6-chloro-7-(4-(3-(3-methylphenyl)cyclopentylcarbamoyl)phenoxy)chroman-4-carboxylate] | 204 nM |

Further lines, results first:

| EC50 | Compound |
| --- | --- |
| 1650 nM | O=C(NC1CCCC(c2ccccc2)C1)c1ccc(Oc2cc3c(cc2Cl)C(C(=O)O)CCO3)cc1 (stereo not drawn) [Example 158, 6-Chloro-7-(4-(3-phenylcyclohexylcarbamoyl)phenoxy)chroman-4-carboxylic acid] |
| 350 nM | Cc1ccc(C2CCCC(NC(=O)c3ccc(Oc4cc5c(cc4Cl)C(C(=O)O)CCO5)cc3)C2)cc1 (stereo not drawn) [Example 160, 6-Chloro-7-(4-(3-(4-methylphenyl)cyclohexylcarbamoyl)phenoxy)chroman-4-carboxylic acid] |
| 1120 nM | COc1ccc(C2CCCC(NC(=O)c3ccc(Oc4cc5c(cc4Cl)C(C(=O)O)CCO5)cc3)C2)cc1 (stereo not drawn) [Example 161, 6-Chloro-7-(4-(3-(4-methoxyphenyl)cyclohexylcarbamoyl)phenoxy)chroman-4-carboxylic acid] |
| 430 nM | CSc1ccc(C2CCCC(NC(=O)c3ccc(Oc4cc5c(cc4Cl)C(C(=O)O)CCO5)cc3)C2)cc1 (stereo not drawn) [Example 162, 6-Chloro-7-(4-(3-(4-(methylthio)phenyl)cyclohexylcarbamoyl)phenoxy)chroman-4-carboxylic acid] |
| 183 nM | O=C(NC1CCCC(c2ccc(Cl)cc2)C1)c1ccc(Oc2cc3c(cc2Cl)C(C(=O)O)CCO3)cc1 (stereo not drawn) [Example 164, Sodium 6-chloro-7-(4-(3-(4-chlorophenyl)cyclohexylcarbamoyl)phenoxy)chroman-4-carboxylate] |
| 272 nM | Cc1ccc(C2CCC(NC(=O)c3ccc(Oc4cc5c(cc4Cl)C(C(=O)O)CCO5)cc3)C2)cc1 (stereo not drawn) [Example 166, 6-Chloro-7-(4-(3-p-tolylcyclopentylcarbamoyl)phenoxy)chroman-4-carboxylic acid] |
| 302 nM | O=C(NC1CCC(c2ccc(Cl)cc2)C1)c1ccc(Oc2cc3c(cc2Cl)C(C(=O)O)CCO3)cc1 (stereo not drawn) [Example 168, Sodium 6-chloro-7-(4-(3-(4-chlorophenyl)cyclopentylcarbamoyl)phenoxy)chroman-4-carboxylate] |
